For series [1], the system named is HBV. Nature of the series: Anti HBV activity in vitro, viral DNA from HepG2.2.15 cells quantified by qPCR. Type of series: cell-based. As to conditions: Hepatitis B virus, qPCR of viral DNA in supernatant, read-out: EC50 against HBV replication. How it is done:
Test 1: Test Method of EC50 of Anti HBV
HBV Cell Line and Culture Conditions
HepG2.2.15 (SELLS, PNAS, 1987 and SELLS, JV, 1988) chromosomes have an integrated complete HBV genome, and stably express viral RNA and viral protein. HepG2.2.15 cells can secrete mature HBV particles, HBsAg and HBeAg to medium. HepG2.2.15 cells were cultured in DMEM containing 10% fetal bovine serum, 100 U/mL penicillin, 100 U/mL streptomycin, 1% non essential amino acid, 1 mM sodium pyruvate and 300 µg/mL G418.
Viral particles DNA secreted from HepG2.2.15 cells can be quantified by qPCR, and the effect of the compound on viral replication can be detected.
Test of Anti HBV Activity In Vitro
8000 HepG 2.2.15 cells per well were seeded into a 96-well plate, the plate was cultured at 37° C. and 5% CO2 for 3 days till the cells grew to full wells. Old liquid medium can be removed and replaced with new medium (200 μL) on day 0.
Formulating the compound and treating the cells in the experiment of anti virus: the compound was dissolved in DMSO to a concentration of 30 mM, and then the compound solution was diluted with DMSO to a concentration of […], and then eight dilutions at 4 fold were performed, the highest concentration is 800 μM. The serial diluted compound was added to the above plate at 1 μL per well, the highest final concentration in the experiment is 4 μM (200 fold dilution). TDF (tenofovir dipiroxil fumarate, Selleck, Cat S1400) has a highest concentration of 4 μM as a positive control. 1 μL of DMSO was added in to the positive control well at a final concentration of 0.5%, TDF was added in to the positive control well at a final concentration of 1 μM.
Detection of Viral Genomic DNA by qPCR
Primer: HBV-For-202, […]; HBV-Rev-315, […]. Copies of virus can be calculated using a standard curve plotted by using plasmid containing HBV genome and using SYBR Premix Ex Taq II Takara DRR081S kit and 1 μL cell culture supernatant as a template. EC50 values of the compound on viral replication were calculated by a four parametric nonlinear regression model using Graphpad Prism 5 software to manage concentration—viral copy number.
On the technique in general: Quantitative PCR measures a nucleic acid by following its amplification.

A short description of series [2]: Cytotoxicity in HepG2.2.15 cells (CellTiter Glo). Type of series: cell-based. As to conditions: human, highest concentration 150 μM. How it is done:
Test 2: Cytotoxicity and Selectivity Index
Methods of Testing Cytotoxicity and Selectivity Index
The serial diluted compound was added to a 384 wells plate at 50 μL HepG2.2.15 cell per well (3000 cells per well), the highest final concentration in the experiment is 150 μM (200 fold dilution). The plate was cultured at 37° C. in an incubator with C02 for 4 days, and cytotoxicity of the compound was detected using CellTiter Glo agent.
The cytotoxicity of the compound was calculated using the following formulate, cytotoxicity (%)=100−(detection value/mean of DMSO control wells values×100). CC50 values were calculated by a four parametric nonlinear regression model using Graphpad Prism 5 software to manage concentration−cytotoxicity (%). […]

Where only a bound is given, the exact number is not on record here.

A word on the EC50: it is the concentration needed to bring the measured effect to its halfway point. For orientation: CC50 means the concentration giving 50% cytotoxicity. A low value points to harm at low concentration. Turning to `CCOC(=O)C1=C(CN2CCN3C(=O)N(c4ccc(CCC(=O)O)cc4)C[C@@H]3C2)NC(c2nccs2)=N[C@H]1c1ccc(F)cc1Br` [Example 22, 3-(4-((S)-7-(((R)-6-(2-bromo-4-fluorophenyl)-5-(ethoxycarbonyl)-2-(thiazol-2-yl)-3,6-dihydropyrimidin-4-yl)methyl)-3-oxohexahydroimidazo[1,5-a]pyrazin-2(3H)-yl)phenyl)prop ionic Acid], the EC50 in series [1] was determined as 5 nM. In addition, the CC50 at 4 days in series [2] is > 150000 nM.

With `CCOC(=O)C1=C(CN2CCN3C(=O)N(c4ccc(CCC(=O)O)cc4)C[C@@H]3C2)NC(c2nccs2)=N[C@H]1c1ccc(F)cc1Cl` [Example 23, 3-(4-((S)-7-(((R)-6-(2-chloro-4-fluorophenyl)-5-(ethoxycarbonyl)-2-(thiazol-2-yl)-3,6-dihydropyrimidin-4-yl)methyl)-3-oxohexahydroimidazo[1,5-a]pyrazin-2(3H)-yl)phenyl)prop ionic Acid], the EC50 in series [1] was 7 nM. The half-maximal cytotoxic concentration (CC50) at 4 days in series [2] is > 150000 nM.

For the molecule `COC(=O)C1=C(CN2CCN3C(=O)N(c4ccc(CCC(=O)O)cc4)C[C@@H]3C2)NC(c2nccs2)=N[C@H]1c1ccc(Cl)cc1Cl` [Example 24, 3-(4-((S)-7-(((R)-6-(2,4-dichlorophenyl)-5-(methoxycarbonyl)-2-(thiazol-2-yl)-3,6-dihydropyrimidin-4-yl)methyl)-3-oxohexahydroimidazo[1,5-a]pyrazin-2 (3H)-yl)phenyl)propionic Acid], in series [1], the EC50 was determined as 4 nM. Besides, in series [2], the CC50 at 4 days is > 150000 nM.

As to `COC(=O)CCc1ccc(N2C[C@@H]3CN(CC4=C(C(=O)OC)[C@H](c5ccc(F)cc5Cl)N=C(c5nccs5)N4)CCN3C2=O)cc1` [Example 25, (R)-methyl 4-(2-chloro-4-fluorophenyl)-6-(((S)-2-(4-(3-methoxy-3-oxopropyl)phenyl)-3-oxohexahydroimidazo[1,5-a]pyrazin-7(1H)-yl)methyl)-2-(thiazol-2-yl)-1,4-dihydropyrimidine-5-carboxylate], the EC50 in series [1] amounted to 5 nM. Further, the CC50 at 4 days in series [2] is > 150000 nM.

On to `CCOC(=O)C1=C(CN2CCN3C(=O)N(c4ccc(CC(=O)O)cc4)C[C@@H]3C2)NC(c2nccs2)=N[C@H]1c1ccc(F)cc1Br` [Example 26, 2-(4-((S)-7-(((R)-6-(2-bromo-4-fluorophenyl)-5-(ethoxycarbonyl)-2-(thiazol-2-yl)-3,6-dihydropyrimidin-4-yl)methyl)-3-oxohexahydroimidazo[1,5-a]pyrazin-2(3H)-yl)phenyl)acetic Acid], for which, in series [1], the half-maximal effective concentration (EC50) turned out to be 8 nM. Besides, in series [2], the 50% cytotoxic concentration (CC50) at 4 days is > 150000 nM.

Regarding `COC(=O)C1=C(CN2CCN3C(=O)N(c4ccc(CC(=O)O)cc4)C[C@@H]3C2)NC(c2nccs2)=N[C@H]1c1ccc(Cl)cc1Cl` [Example 27, 2-(4-((S)-7-(((R)-6-(2,4-dichlorophenyl)-5-(methoxycarbonyl)-2-(thiazol-2-yl)-3,6-dihydropyrimidin-4-yl)methyl)-3-oxohexahydroimidazo[,5-a]pyrazin-2(3H)-yl)phenyl)acetic Acid], the EC50 in series [1] came out at 7 nM. Besides, the CC50 at 4 days in series [2] was > 150000 nM.

As to `CCOC(=O)C1=C(CN2CCN3C(=O)N(c4ccc(CC(C)(C)C(=O)O)cc4)C[C@@H]3C2)NC(c2nccs2)=N[C@H]1c1ccc(F)cc1Br` [Example 28], in series [1], the EC50 worked out at 5 nM. Further, the cytotoxic concentration (CC50) at 4 days in series [2] is > 150000 nM.

`CCOC(=O)C1=C(CN2CCN3C(=O)N(c4ccc(CC(C)(C)C(=O)O)cc4)C[C@@H]3C2)NC(c2nccs2)=N[C@H]1c1ccc(F)cc1Cl` [Example 29, 3-(4-((S)-7-(((R)-6-(2-chloro-4-fluorophenyl)-5-(ethoxycarbonyl)-2-(thiazol-2-yl)-3,6-dihydropyrimidin-4-yl)methyl)-3-oxohexahydroimidazo[1,5-a]pyrazin-2(3H)-yl)phenyl)-2,2-dimethylpropionic Acid]: in series [1], the EC50 came to 6 nM. Besides, the CC50 at 4 days in series [2] is > 150000 nM.

Turning to `COC(=O)C1=C(CN2CCN3C(=O)N(c4ccc(C(C)=O)cc4)C[C@@H]3C2)NC(c2nccs2)=N[C@H]1c1ccc(F)cc1Cl` [Example 31, (R)-methyl 6-(((S)-2-(4-acetylphenyl)-3-oxohexahydroimidazo[1,5-a]pyrazin-7(1H)-yl)methyl)-4-(2-chloro-4-fluorophenyl)-2-(thiazol-2-yl)-1,4-dihydropyrimidine-5-carboxy late], in series [1], the EC50 came to 4 nM. The half-maximal cytotoxic concentration (CC50) at 4 days in series [2] is > 150000 nM.

For `COC(=O)C1=C(CN2CCN3C(=O)N(c4ccc(C(C)=O)cc4F)C[C@@H]3C2)NC(c2nccs2)=N[C@H]1c1ccc(F)cc1Cl` [Example 32, (R)-methyl 6-(((S)-2-(4-acetyl-2fluorophenyl)-3-oxohexahydroimidazo[1,5-a]pyrazin-7(1H)-yl)methyl)-4-(2-chloro-4-fluorophenyl)-2-(thiazol-2-yl)-1,4-dihydropyrimidine-5-carboxylate], the half-maximal effective concentration (EC50) in series [1] came to 6 nM. Moreover, the CC50 at 4 days in series [2] was > 150000 nM.

In the case of `COC(=O)C1=C(CN2CCN3C(=O)N(c4ccc(C(C)(C)C(=O)O)cc4F)C[C@@H]3C2)NC(c2nccs2)=N[C@H]1c1ccc(F)cc1Cl` [Example 33, 2-(4-((S)-7-(((R)-6-(2-chloro-4-fluorophenyl)-5-(methoxycarbonyl)-2-(thiazol-2-yl)-3,6-dihydropyrimidin-4-yl)methyl)-3-oxohexahydroimidazo[1,5-a]pyrazin-2(3H)-yl)-3-fluorophenyl)-2-methylpropionic Acid], in series [1], the concentration for a half-maximal effect (EC50) was found to be 25 nM. Moreover, the 50% cytotoxic concentration (CC50) at 4 days in series [2] was > 150000 nM.

In the case of `COC(=O)C1=C(CN2CCN3C(=O)N(c4ccc(CCC(=O)O)cc4F)C[C@@H]3C2)NC(c2nccs2)=N[C@H]1c1ccc(F)cc1Cl` [Example 34, 3-(4-((S)-7-(((R)-6-(2-chloro-4-fluorophenyl)-5-(methoxycarbonyl)-2-(thiazol-2-yl)-3,6-dihydropyrimidin-4-yl)methyl)-3-oxohexahydroimidazo[1,5-a]pyrazin-2(3H)-yl)-3-fluorophenyl)propionic Acid], the EC50 in series [1] was 16 nM. Moreover, the CC50 at 4 days in series [2] is > 150000 nM.

As to `COC(=O)C1=C(CN2CCN3C(=O)N(c4cccc(CCC(=O)O)c4)C[C@@H]3C2)NC(c2nccs2)=N[C@H]1c1ccc(F)cc1Cl` [Example 37, 3-(3-((S)-7-(((R)-6-(2-chloro-4-fluorophenyl)-5-(methoxycarbonyl)-2-(thiazol-2-yl)-3,6-dihydropyrimidin-4-yl)methyl)-3-oxohexahydroimidazo[1,5-a]pyrazin-2(3H)-yl)phenyl)propionic Acid], in series [1], the half-maximal effective concentration (EC50) stood at 5 nM. The CC50 at 4 days in series [2] is > 150000 nM.

As to `COC(=O)C1=C(CN2CCN3C(=O)N(c4cccc(C(C)(C)C(=O)O)c4)C[C@@H]3C2)NC(c2nccs2)=N[C@H]1c1ccc(F)cc1Cl` [Example 38, 2-(3-((S)-7-(((R)-6-(2-chloro-4-fluorophenyl)-5-(methoxycarbonyl)-2-(thiazol-2-yl)-3,6-dihydropyrimidin-4-yl)methyl)-3-oxohexahydroimidazo[1,5-a]pyrazin-2(3H)-yl)phenyl)-2-methylpropionic Acid], the EC50 in series [1] turned out to be 15 nM. Besides, the CC50 at 4 days in series [2] was > 150000 nM.

Regarding `COC(=O)C1=C(CN2CCN3C(=O)N(c4cccc(CC(=O)O)c4)C[C@@H]3C2)NC(c2nccs2)=N[C@H]1c1ccc(F)cc1Cl` [Example 39, 2-(3-((S)-7-(((R)-6-(2-chloro-4-fluorophenyl)-5-(methoxycarbonyl)-2-(thiazol-2-yl)-3,6-dihydropyrimidin-4-yl)methyl)-3-oxohexahydroimidazo[1,5-a]pyrazin-2(3H)-yl)phenyl) acetic Acid], in series [1], the EC50 stood at 29 nM. Besides, the 50% cytotoxic concentration (CC50) at 4 days in series [2] is > 150000 nM.

As to `COC(=O)C1=C(CN2CCN3C(=O)N(c4ccc(OC(C)(C)C(=O)O)cc4)C[C@@H]3C2)NC(c2nccs2)=N[C@H]1c1ccc(F)cc1Cl` [Example 40, 2-(4-((S)-7-(((R)-6-(2-chloro-4-fluorophenyl)-5-(methoxycarbonyl)-2-(thiazol-2-yl)-3,6-dihydropyrimidin-4-yl)methyl)-3-oxohexahydroimidazo[1,5-a]pyrazin-2(3H)-yl)phenoxy)-2-methylpropionic Acid], in series [1], the concentration giving a half-maximal response (EC50) was found to be 71 nM. In addition, the CC50 at 4 days in series [2] is > 150000 nM.

Values taken from patent US11261190B2, “Dihydropyrimidine compounds and uses thereof in medicine” (SUNSHINE LAKE PHARMA CO., LTD., priority 2017, dated 2022).
